Holding throughout (format): in vivo
Data set [1] deals with Avena fatua. Description: Test Example 4: herbicidal effect by soil treatment (symbol I). Particulars: application herbicide amount 320 g/ha. In a few lines:
(§1)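 Seeds were sown in sterilized diluvial soil, covered with about 1.5 cm of soil, and the soil surface was sprayed with a water-diluted emulsion of the compound at a predetermined rate. Plants grew in a greenhouse at 25° C. to 30° C.; effects were scored visually 3 weeks after application.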

The subject of another data set is beet. As to the kind of experiment: Test Example 4: effect on crop by soil treatment (symbol f). The conditions noted are these: application herbicide amount 320 g/ha. In a few lines:
(§2)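 Crop seeds, among them rice, wheat, beet and rapeseed, were sown in sterilized diluvial soil and covered with about 1.5 cm of soil. Boxes were kept in a greenhouse at 25° C. to 30° C. for plant growth.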

The subject of a further data set is Abutilon theophrasti. As to the kind of experiment: Test Example 4: herbicidal effect by soil treatment (symbol M). The conditions noted are these: application herbicide amount 320 g/ha. In outline: as §1
Data set [2] concerns Echinochloa crus-galli var. crus-galli. As to the kind of experiment: Test Example 4: herbicidal effect by soil treatment (symbol H). The conditions noted are these: application herbicide amount 320 g/ha. In outline: as §1
Another data set deals with Apera spica-venti. As to the kind of experiment: Test Example 5: herbicidal effect by foliage application, plastic box (symbol L). Particulars: 320 g/ha, 3 weeks after application. In outline:
(§3)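 Sowing in sterilized diluvial soil, 14 days' greenhouse growth at 25° C. to 30° C., then uniform small-sprayer foliar application of aqueous emulsion dilution; plants scored three weeks afterwards.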

The test system of another data set is rapeseed. Description: Test Example 5: effect on crop by foliage application, plastic box (symbol g). Particulars: 320 g/ha, 3 weeks after application. In a few lines:
(§4)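 Greenhouse test at 25° C. to 30° C. Seeds of crops and weeds were spot-sown in boxes of sterilized diluvial soil under roughly 1.5 cm soil cover, then grown for foliage treatment.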

For data set [3], the system named is Monochoria vaginalis. Description: Test Example 2: herbicidal activity, application during weed generation in submerged conditions (symbol C). Particulars: Table 23; application herbicide amount 320 g/ha; grade 0-5 by criteria of Test Example 1. In a few lines:
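Scoring of herbicidal effect took place 3 weeks after treatment, using the criteria of the earlier test. Treatment was water-surface application of diluted emulsifiable compound at a set dose. Plants were at one- to two-leaf stage in submerged alluvial soil (4 cm depth), greenhouse 25-30° C.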

Data set [4] has as its system Avena fatua. Description: Test Example 5: herbicidal effect by foliage application, plastic box (symbol I). Particulars: 320 g/ha, 3 weeks after application. In outline:
as §3

Data set [5] relates to Echinochloa oryzacola Vasing. Description: Test Example 1: herbicidal activity, application before weed generation in submerged conditions (symbol A). Particulars: application herbicide amount 320 g/ha. In outline:
(§5)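 Flooded alluvial soil (4 cm water) was mixed-sown with the three weed species, and 2.5-leaf rice seedlings were transplanted. On sowing day, a water-diluted emulsion at a predetermined rate was applied to the water surface. After 3 weeks in a 25–30 °C greenhouse, effect was scored 0–5.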

In a further data set the test system is rice. Description: Test Example 4: effect on crop by soil treatment (symbol b). Particulars: application herbicide amount 320 g/ha. In a few lines: as §2
A further data set concerns soybean. As to the kind of experiment: Test Example 4: effect on crop by soil treatment (symbol d). Particulars: application herbicide amount 320 g/ha. In a few lines:
as §2

Data set [6] deals with Monochoria vaginalis. Description: Test Example 1: herbicidal activity, application before weed generation in submerged conditions (symbol C). The conditions noted are these: application herbicide amount 320 g/ha. In outline: as §5
A further data set deals with Setaria viridis. Description: Test Example 5: herbicidal effect by foliage application, plastic box (symbol G). Particulars: 320 g/ha, 3 weeks after application. In outline: as §3
Another data set relates to corn. Description: Test Example 5: effect on crop by foliage application, plastic box (symbol c). The conditions noted are these: 320 g/ha, 3 weeks after application. In a few lines: as §4
The subject of data set [7] is Echinochloa crus-galli var. crus-galli. Description: Test Example 5: herbicidal effect by foliage application, plastic box (symbol H). The conditions noted are these: 320 g/ha, 3 weeks after application. In outline: as §3

Take `CON=C(C)CC1CC(O)=C(c2c(F)cc(Br)cc2OC)C1=O` (stereo not shown) [6-096]: the “Herbicidal effect grade, I: Avena fatua” value in the data set on Avena fatua [1] is 3 (Herbicidal ratio of 40% or higher and lower than 70%). In the data set with beet, the “Effect on crop grade, f: beet” value was 0 (Herbicidal ratio of 5% or lower (almost no effect)). Moreover, the “Herbicidal effect grade, M: Abutilon theophrasti” value in the data set with Abutilon theophrasti was 0 (Herbicidal ratio of 5% or lower (almost no effect)). The “Herbicidal effect grade, H: Echinochloa crus-galli var. crus-galli” value (“Herbicidal effect grade, H” for short) in data set [2] is 4 (Herbicidal ratio of 70% or higher and lower than 90%). Moreover, the “L: Apera spica-venti, herbicidal effect (criteria of Test Example 1)” value (shortened to “L: Apera spica-venti, herbicidal effect”) in the data set on Apera spica-venti is 3 (Herbicidal ratio of 40% or higher and lower than 70%). The “g: rapeseed, effect on crop (criteria of Test Example 1)” value (shortened to “g: rapeseed, effect on crop”) in the data set with rapeseed was 4 (Herbicidal ratio of 70% or higher and lower than 90%). For the same compound, the “Herbicidal effect grade, C: Monochoria vaginalis” value (shortened to “Herbicidal effect grade, C”) with Monochoria vaginalis [3] and in the data set with Monochoria vaginalis [6] was 0 (Herbicidal ratio of 5% or lower (almost no effect)) throughout. Besides, the “I: Avena fatua, herbicidal effect (criteria of Test Example 1)” value (“I: Avena fatua, herbicidal effect” below) in the data set on Avena fatua [4] was 5 (Herbicidal ratio of 90% or more (almost completely withered)). Moreover, in data set [5], the “Herbicidal effect grade, A: Echinochloa oryzacola Vasing.” value is 1 (Herbicidal ratio of 5% or higher and lower than 20%). The “Effect on crop grade, b: directly sowed rice plant” value (shortened to “Effect on crop grade, b”) with rice is recorded as 5 (Herbicidal ratio of 90% or more (almost completely withered)). The “Effect on crop grade, d: soybean” value in the data set with soybean is 0 (Herbicidal ratio of 5% or lower (almost no effect)).

As for `CON=C(C)C(C)C1CC(O)=C(c2c(C)cc(Br)cc2OC)C1=O` (stereo not shown) [6-113], in the data set on Avena fatua [1], the “Herbicidal effect grade, I: Avena fatua” value is 0 (Herbicidal ratio of 5% or lower (almost no effect)). For the same compound, the “Effect on crop grade, f: beet” value with beet was 0 (Herbicidal ratio of 5% or lower (almost no effect)). Also, the “Herbicidal effect grade, H” value in data set [2] is listed as 5 (Herbicidal ratio of 90% or more (almost completely withered)). Besides, the “L: Apera spica-venti, herbicidal effect” value in the data set on Apera spica-venti was 5 (Herbicidal ratio of 90% or more (almost completely withered)). Also, in the data set with rapeseed, the “g: rapeseed, effect on crop” value is 4 (Herbicidal ratio of 70% or higher and lower than 90%). Further, the “Herbicidal effect grade, C” value in the data set on Monochoria vaginalis [3] is 3 (Herbicidal ratio of 40% or higher and lower than 70%); with Monochoria vaginalis [6], 0 (Herbicidal ratio of 5% or lower (almost no effect)). Besides, the “G: Setaria viridis, herbicidal effect (criteria of Test Example 1)” value with Setaria viridis is given as 5 (Herbicidal ratio of 90% or more (almost completely withered)). Besides, in the data set on Avena fatua [4], the “I: Avena fatua, herbicidal effect” value is given as 5 (Herbicidal ratio of 90% or more (almost completely withered)). For the same compound, the “Herbicidal effect grade, A: Echinochloa oryzacola Vasing.” value in data set [5] is 4 (Herbicidal ratio of 70% or higher and lower than 90%). In the data set with rice, the “Effect on crop grade, b” value is 5 (Herbicidal ratio of 90% or more (almost completely withered)). In addition, the “Effect on crop grade, d: soybean” value with soybean is on record as 0 (Herbicidal ratio of 5% or lower (almost no effect)). Further, the “c: corn, effect on crop (criteria of Test Example 1)” value with corn was 5 (Herbicidal ratio of 90% or more (almost completely withered)). The “H: Echinochloa crus-galli var. crus-galli, herbicidal effect (criteria of Test Example 1)” value in [7] is recorded as 5 (Herbicidal ratio of 90% or more (almost completely withered)).

On to `COc1cc(Br)cc(F)c1C1=C(O)CC(CC(C)=O)C1=O` (stereo not shown) [7-029], for which, in the data set on Avena fatua [1], the “Herbicidal effect grade, I: Avena fatua” value is reported as 0 (Herbicidal ratio of 5% or lower (almost no effect)). For the same compound, the “Effect on crop grade, f: beet” value in the data set on beet was 0 (Herbicidal ratio of 5% or lower (almost no effect)). In addition, the “Herbicidal effect grade, M: Abutilon theophrasti” value in the data set on Abutilon theophrasti is reported as 0 (Herbicidal ratio of 5% or lower (almost no effect)). The “Herbicidal effect grade, H” value in data set [2] is 2 (Herbicidal ratio of 20% or higher and lower than 40%). Also, the “L: Apera spica-venti, herbicidal effect” value in the data set with Apera spica-venti is 3 (Herbicidal ratio of 40% or higher and lower than 70%). Moreover, the “g: rapeseed, effect on crop” value with rapeseed was 1 (Herbicidal ratio of 5% or higher and lower than 20%). In addition, the “I: Avena fatua, herbicidal effect” value in the data set with Avena fatua [4] is 3 (Herbicidal ratio of 40% or higher and lower than 70%). For the same compound, in data set [5], the “Herbicidal effect grade, A: Echinochloa oryzacola Vasing.” value is 2 (Herbicidal ratio of 20% or higher and lower than 40%). Moreover, the “Effect on crop grade, b” value with rice was 1 (Herbicidal ratio of 5% or higher and lower than 20%). The “Effect on crop grade, d: soybean” value in the data set on soybean is 0 (Herbicidal ratio of 5% or lower (almost no effect)). In the data set with Monochoria vaginalis [6], the “Herbicidal effect grade, C” value is reported as 0 (Herbicidal ratio of 5% or lower (almost no effect)).

The values above are taken from patent US11000033B2, “Ketone or oxime compound, and herbicide” (NISSAN CHEMICAL CORPORATION, priority 2014, dated 2021).
